In patent EP0050253A1, “Antibiotic pharmaceutical composition” (priority 1980, dated 1982):

Tests used:
Escherichia coli R^+TEM = assay: Agar dilution checkerboard growth test (Caseinpepton-Fleischextrakt-Bouillon-Agar, ~3x10^4 CFU/ml, 18 h, 37 °C); assay type: cell-based
Description: (§1) Ein Caseinpepton-Fleischextrakt-Bouillon-Agar mit einem Gehalt der angegebenen Menge der nachstehend angegebenen Substanzen A und B wird mit dem Testbakterium geimpft (~3x10^4CFU/ml). Nach der Inkubation während 18 Stunden bei 37 °C wird der Wuchszustand der Testbakterien untersucht. Die Ergebnisse sind in den Tabellen zusammengestellt. In jeder Tabelle bedeutet (+), daß das Testbakterium wächst, und (-) bedeutet, daß das Testbakterium nicht wächst. Man erkennt aus diesen Tabellen, daß die Kombination von D-α-[3-(2-p-Aminosulfonylanilino-4-hydroxy-5-pyrimidinyl)-ureido]-p-hydroxy-benzylpenicillin-Natrium = A bzw.

Kl. pneumoniae 1082 E = assay: as above; assay type: cell-based
Description: as §1

SMILES: CC1(C)S[C@@H]2[C@H](NC(=O)[C@H](NC(=O)Nc3cnc(Nc4ccc(S(N)(=O)=O)cc4)nc3O)c3ccc(O)cc3)C(=O)N2[C@H]1C(=O)O [Substanz A, D-α-[3-(2-p-Aminosulfonylanilino-4-hydroxy-5-pyrimidinyl)-ureido]-p-hydroxy-benzylpenicillin-Natrium]
- Wuchszustand der Testbakterien (Escherichia coli R^+TEM; C 0 µg/ml, A 0,5 µg/ml): +
- Wuchszustand der Testbakterien (Escherichia coli R^+TEM; C 0 µg/ml, A 1 µg/ml): +
- Wuchszustand der Testbakterien (Escherichia coli R^+TEM; C 0 µg/ml, A 2 µg/ml): +
- Wuchszustand der Testbakterien (Escherichia coli R^+TEM; C 0 µg/ml, A 4 µg/ml): +
- Wuchszustand der Testbakterien (Escherichia coli R^+TEM; C 0 µg/ml, A 8 µg/ml): +
- Wuchszustand der Testbakterien (Escherichia coli R^+TEM; C 0 µg/ml, A 16 µg/ml): +
- Wuchszustand der Testbakterien (Escherichia coli R^+TEM; C 0 µg/ml, A 32 µg/ml): +
- Wuchszustand der Testbakterien (Escherichia coli R^+TEM; C 0 µg/ml, A 64 µg/ml): +
- Wuchszustand der Testbakterien (Escherichia coli R^+TEM; C 0 µg/ml, A 128 µg/ml): +
- Wuchszustand der Testbakterien (Kl. pneumoniae 1082 E; C 0 µg/ml, A 0,5 µg/ml): +
- Wuchszustand der Testbakterien (Kl. pneumoniae 1082 E; C 0 µg/ml, A 0,25 µg/ml): +
- Wuchszustand der Testbakterien (Kl. pneumoniae 1082 E; C 0 µg/ml, A 1 µg/ml): +
- Wuchszustand der Testbakterien (Kl. pneumoniae 1082 E; C 0 µg/ml, A 2 µg/ml): +
- Wuchszustand der Testbakterien (Kl. pneumoniae 1082 E; C 0 µg/ml, A 4 µg/ml): +
- Wuchszustand der Testbakterien (Kl. pneumoniae 1082 E; C 0 µg/ml, A 8 µg/ml): +
- Wuchszustand der Testbakterien (Kl. pneumoniae 1082 E; C 0 µg/ml, A 16 µg/ml): +
- Wuchszustand der Testbakterien (Kl. pneumoniae 1082 E; C 0 µg/ml, A 32 µg/ml): +
- Wuchszustand der Testbakterien (Kl. pneumoniae 1082 E; C 0 µg/ml, A 64 µg/ml): +

SMILES: O=C(O)[C@H]1/C(=C/CO)O[C@@H]2CC(=O)N21 [Substanz C, Lithium-Z-(2R,5R)-3-(ß-hydroxyäthyliden)-7-oxo-4-oxa-1-aza-bicyclo[3,2,0]-heptan-2-carboxylat, reference compound]
- Wuchszustand der Testbakterien (Escherichia coli R^+TEM; C 0,5 µg/ml, B 0 µg/ml): +
- Wuchszustand der Testbakterien (Escherichia coli R^+TEM; C 0,25 µg/ml, B 0 µg/ml): +
- Wuchszustand der Testbakterien (Escherichia coli R^+TEM; C 1 µg/ml, A 0 µg/ml): +
- Wuchszustand der Testbakterien (Escherichia coli R^+TEM; C 1 µg/ml, B 0 µg/ml): +
- Wuchszustand der Testbakterien (Escherichia coli R^+TEM; C 2 µg/ml, A 0 µg/ml): +
- Wuchszustand der Testbakterien (Escherichia coli R^+TEM; C 2 µg/ml, B 0 µg/ml): +
- Wuchszustand der Testbakterien (Escherichia coli R^+TEM; C 4 µg/ml, A 0 µg/ml): +
- Wuchszustand der Testbakterien (Escherichia coli R^+TEM; C 4 µg/ml, B 0 µg/ml): +
- Wuchszustand der Testbakterien (Escherichia coli R^+TEM; C 8 µg/ml, A 0 µg/ml): +
- Wuchszustand der Testbakterien (Escherichia coli R^+TEM; C 8 µg/ml, B 0 µg/ml): +
- Wuchszustand der Testbakterien (Escherichia coli R^+TEM; C 16 µg/ml, A 0 µg/ml): +
- Wuchszustand der Testbakterien (Escherichia coli R^+TEM; C 16 µg/ml, B 0 µg/ml): +
- Wuchszustand der Testbakterien (Escherichia coli R^+TEM; C 32 µg/ml, A 0 µg/ml): -
- Wuchszustand der Testbakterien (Escherichia coli R^+TEM; C 32 µg/ml, B 0 µg/ml): -
- Wuchszustand der Testbakterien (Kl. pneumoniae 1082 E; C 1 µg/ml, A 0 µg/ml): +
- Wuchszustand der Testbakterien (Kl. pneumoniae 1082 E; C 1 µg/ml, B 0 µg/ml): +
- Wuchszustand der Testbakterien (Kl. pneumoniae 1082 E; C 2 µg/ml, A 0 µg/ml): +
- Wuchszustand der Testbakterien (Kl. pneumoniae 1082 E; C 2 µg/ml, B 0 µg/ml): +
- Wuchszustand der Testbakterien (Kl. pneumoniae 1082 E; C 4 µg/ml, A 0 µg/ml): +
- Wuchszustand der Testbakterien (Kl. pneumoniae 1082 E; C 4 µg/ml, B 0 µg/ml): +
- Wuchszustand der Testbakterien (Kl. pneumoniae 1082 E; C 8 µg/ml, A 0 µg/ml): +
- Wuchszustand der Testbakterien (Kl. pneumoniae 1082 E; C 8 µg/ml, B 0 µg/ml): +
- Wuchszustand der Testbakterien (Kl. pneumoniae 1082 E; C 16 µg/ml, A 0 µg/ml): +
- Wuchszustand der Testbakterien (Kl. pneumoniae 1082 E; C 16 µg/ml, B 0 µg/ml): +
- Wuchszustand der Testbakterien (Kl. pneumoniae 1082 E; C 32 µg/ml, A 0 µg/ml): +
- Wuchszustand der Testbakterien (Kl. pneumoniae 1082 E; C 32 µg/ml, B 0 µg/ml): +
- Wuchszustand der Testbakterien (Kl. pneumoniae 1082 E; C 64 µg/ml, A 0 µg/ml): -
- Wuchszustand der Testbakterien (Kl. pneumoniae 1082 E; C 64 µg/ml, B 0 µg/ml): -

SMILES: Cn1nnnc1SCC1=C(C(=O)O)N2C(=O)[C@@H](NC(=O)[C@H](NC(=O)Nc3cnc(Nc4ccc(S(N)(=O)=O)cc4)nc3O)c3ccc(O)cc3)[C@H]2SC1 [Substanz B]
- Wuchszustand der Testbakterien (Escherichia coli R^+TEM; C 0 µg/ml, B 0,5 µg/ml): +
- Wuchszustand der Testbakterien (Escherichia coli R^+TEM; C 0 µg/ml, B 0,06 µg/ml): +
- Wuchszustand der Testbakterien (Escherichia coli R^+TEM; C 0 µg/ml, B 0,25 µg/ml): +
- Wuchszustand der Testbakterien (Escherichia coli R^+TEM; C 0 µg/ml, B 1 µg/ml): +
- Wuchszustand der Testbakterien (Escherichia coli R^+TEM; C 0 µg/ml, B 2 µg/ml): +
- Wuchszustand der Testbakterien (Escherichia coli R^+TEM; C 0 µg/ml, B 4 µg/ml): +
- Wuchszustand der Testbakterien (Escherichia coli R^+TEM; C 0 µg/ml, B 8 µg/ml): -
- Wuchszustand der Testbakterien (Escherichia coli R^+TEM; C 0 µg/ml, B 0,125 µg/ml): +
- Wuchszustand der Testbakterien (Kl. pneumoniae 1082 E; C 0 µg/ml, B 0,5 µg/ml): +
- Wuchszustand der Testbakterien (Kl. pneumoniae 1082 E; C 0 µg/ml, B 0,25 µg/ml): +
- Wuchszustand der Testbakterien (Kl. pneumoniae 1082 E; C 0 µg/ml, B 1 µg/ml): +
- Wuchszustand der Testbakterien (Kl. pneumoniae 1082 E; C 0 µg/ml, B 2 µg/ml): +
- Wuchszustand der Testbakterien (Kl. pneumoniae 1082 E; C 0 µg/ml, B 4 µg/ml): +
- Wuchszustand der Testbakterien (Kl. pneumoniae 1082 E; C 0 µg/ml, B 8 µg/ml): +
- Wuchszustand der Testbakterien (Kl. pneumoniae 1082 E; C 0 µg/ml, B 16 µg/ml): +
- Wuchszustand der Testbakterien (Kl. pneumoniae 1082 E; C 0 µg/ml, B 32 µg/ml): +
- Wuchszustand der Testbakterien (Kl. pneumoniae 1082 E; C 0 µg/ml, B 64 µg/ml): +
